In the NIST ThermoML archive (doi:10.1016/j.fluid.2010.03.010):
Numbers after ± are expanded uncertainties.

Assay: molar heat capacity at constant pressure
Conditions: 101.33 kPa, Liquid, Differential Scanning Calorimetry

Row | molar heat capacity at constant pressure (308.16 K) | molar heat capacity at constant pressure (313.16 K) | molar heat capacity at constant pressure (318.16 K) | molar heat capacity at constant pressure (323.16 K) | molar heat capacity at constant pressure (328.22 K) | molar heat capacity at constant pressure (333.22 K) | molar heat capacity at constant pressure (338.19 K) | molar heat capacity at constant pressure (343.18 K) | molar heat capacity at constant pressure (348.25 K) | molar heat capacity at constant pressure (353.18 K) | molar heat capacity at constant pressure (358.25 K) | molar heat capacity at constant pressure (363.18 K) | Compound
1 | 381.78 ± 11 J/K/mol | 384.86 ± 12 J/K/mol | 382.81 ± 11 J/K/mol | 386.92 ± 12 J/K/mol | 386.92 ± 12 J/K/mol | 388.97 ± 12 J/K/mol | 391.02 ± 12 J/K/mol | 392.05 ± 12 J/K/mol | 394.1 ± 12 J/K/mol | 395.13 ± 12 J/K/mol | 396.15 ± 12 J/K/mol | 399.23 ± 12 J/K/mol | CCCCn1cc[n+](C)c1.N#CN=C=[N-] [1-butyl-3-methylimidazolium dicyanamide]
2 | 393.42 ± 12 J/K/mol | 396.97 ± 12 J/K/mol | 399.33 ± 12 J/K/mol | 402.06 ± 12 J/K/mol | 405.24 ± 12 J/K/mol | 406.42 ± 12 J/K/mol | 408.78 ± 12 J/K/mol | 411.14 ± 12 J/K/mol | 414.69 ± 12 J/K/mol | 415.87 ± 12 J/K/mol | 418.23 ± 13 J/K/mol | 420.6 ± 13 J/K/mol | CCOS(=O)(=O)[O-].CCn1cc[n+](C)c1 [1-ethyl-3-methylimidazolium ethyl sulfate]

Row | Compound | molar heat capacity at constant pressure (308.16 K) | molar heat capacity at constant pressure (313.16 K) | molar heat capacity at constant pressure (318.16 K) | molar heat capacity at constant pressure (323.16 K) | molar heat capacity at constant pressure (328.22 K) | molar heat capacity at constant pressure (333.22 K) | molar heat capacity at constant pressure (338.19 K) | molar heat capacity at constant pressure (343.18 K) | molar heat capacity at constant pressure (348.25 K) | molar heat capacity at constant pressure (353.18 K) | molar heat capacity at constant pressure (358.25 K) | molar heat capacity at constant pressure (363.18 K)
3 | CCCC[n+]1ccn(C)c1.O=S(=O)([N-]S(=O)(=O)C(F)(F)F)C(F)(F)F | 573.13 ± 17 J/K/mol | 575.92 ± 17 J/K/mol | 577.32 ± 17 J/K/mol | 581.51 ± 17 J/K/mol | 584.31 ± 18 J/K/mol | 588.5 ± 18 J/K/mol | 588.5 ± 18 J/K/mol | 592.7 ± 18 J/K/mol | 595.49 ± 18 J/K/mol | 596.89 ± 18 J/K/mol | 599.68 ± 18 J/K/mol | 602.48 ± 18 J/K/mol
